The subject of one assay is HCO_014287. The assay is described as follows: Thermal proteome profiling (TPP). Type of assay: binding, Haemonchus contortus. The following applies: UMW-868 at 50 μM, xL3 protein extract, 37–67°C, versus PBS control. From the text: (§1) TPP is an advanced, multiplexed mass-spectrometry method that allows the unbiased identification or detection of drug targets ([Savitski et al., 2014]; [Perrin et al., 2020]; [Mateus et al., 2022]); it relies on the thermostability of protein-drug interactions to identify potential target protein(s) through denaturation profiles (melting curves) upon heat treatment ([Childs et al., 2019]), and has proven capacity to specifically identify targets of anti-cancer drugs or drug candidates ([Savitski et al., 2014]; [Perrin et al., 2020]; [Mateus et al., 2022]). […] The protein concentration in the supernatant was measured using a BCA Protein Assay Kit (Thermo Fisher Scientific), adjusted to 2 mg/ml and divided into four 250 μl aliquots/replicates (each containing 500 μg protein). • (ii) Incubation with compound (UMW-868), and temperature profile: Of the four 250 µl aliquots of xL3 proteins, two (i.e., test-samples) were each incubated with an equal volume of compound (UMW-868 at 50 μM), and two (control-samples) with an equal volume of PBS (pH 7.0) for 30 min at 23°C. […]

In the next assay the test system is HCO_011565. Nature of the assay: Thermal proteome profiling (TPP). The following applies: UMW-868 at 50 μM, xL3 protein extract, 37–67°C, versus PBS control. Type of assay: binding, Haemonchus contortus.
From the text: as §1

The test system of assay [1] is Caenorhabditis elegans young adults. The assay is described as follows: In vitro activity on C. elegans. Type of assay: cell-based.
The test system of assay [2] is H. contortus fourth-stage larvae (L4s) development. The assay is described as follows: Dose-response evaluation, L4 development. Type of assay: cell-based, Haemonchus contortus. On the procedure:
These evaluations were carried out to estimate the half-maximal inhibitory concentrations (IC50 values) for hit compounds against H. contortus xL3s. With reference to the two positive-control compounds (monepantel and moxidectin), IC50 values for compounds were estimated ([Preston et al., 2015]; [Taki et al., 2021a]) using two-fold serial dilution (in LB*; 9 points from 50 μM to 0.2 µM) in 96-well plates (cat. no. 3596; Corning) with larvae at a density of 300 H. contortus xL3s in 100 µl per well. Plates containing H. contortus xL3s were incubated at 38°C, 10% (v/v) CO2 and >90% relative humidity.
The motility of H. contortus xL3s and L4 development were measured following 168 h of incubation with compound ([Taki et al., 2021a]). Compound concentrations were log10-transformed and fitted using a variable slope four-parameter equation, constraining the highest value to 100% employing a least squares (ordinary) fit model using GraphPad Prism software (v.9.1.2). Compounds were tested by three independent experiments in triplicate. A one-way analysis of variance (ANOVA) with a Tukey’s multiple comparison test or an unpaired t-test was used to establish statistically significant differences in larval motility or development.

Structures are written as SMILES. pIC50: −log10 of the molar value. Where two headings read alike, the source gives them in different places.

For orientation: pIC50 means the negative decadic logarithm of the IC50, by convention in mol/L. Broadly, the IC50 is the concentration needed to halve the response being measured. As for `CCCc1ccc(-c2nc(-c3cccs3)no2)cc1` [UMW-868, 5-(4-propylphenyl)-3-(2-thienyl)-1,2,4-oxadiazole], the “thermostability of protein in presence of compound” value with HCO_014287 is listed as “highest, statistically significant thermostability”; with HCO_011565 it was “highest, statistically significant thermostability”. Besides, the “motility reduction of C. elegans” value in assay [1] (10 µM, at 40 h) turned out to be 53.5%. The pIC50 in assay [1] (Caenorhabditis elegans, read-out: IC50 (C. elegans motility)) is 5.00; in assay [2] (Haemonchus contortus, larval development inhibition, 168 h, hit evaluation, read-out: IC50 (development)), 5.24. For the same molecule, the concentration for half-maximal inhibition (IC50) in assay [2] (Haemonchus contortus, 168 h, analog series, read-out: L4 development inhibition (IC50 in µM)) was 50 µM. For the same molecule, the “abnormal phenotypes in affected xL3s” value in assay [2] (dose-response evaluation) is on record as “curved or evisceration”.

For the origin of these results see publication PMC9616048, “Thermal proteome profiling reveals Haemonchus orphan protein HCO_011565 as a target of the nematocidal small molecule UMW-868” (Frontiers in Pharmacology, 2022).
